Our source for the melting point values is patent US20080242667A1, “Pyrimidinyl-Pyrazole Inhibitors of Aurora Kinases” (SMITHKLINE BEECHAM CORPORATION, priority 2005, published 2008).

The molecule `O=C(Nc1ccc(-c2nn(CCO)cc2-c2ccnc(Nc3cccc(F)c3)n2)cc1)N1CCCC1` [Example 54, N-{4-[4-{2-[(3-fluorophenyl)amino]-4-pyrimidinyl}-1-(2-hydroxyethyl)-1H-pyrazol-3-yl]phenyl}-1-pyrrolidinecarboxamide] showed a melting point of 185 to 186 °C.
In the case of `Cn1cc(-c2ccnc(Nc3cccc(CCN4CCOCC4)c3)n2)c(-c2ccc(NC(=O)NC3CC3)cc2)n1` [Example 55, N-cyclopropyl-N′-(4-{1-methyl-4-[2-({3-[2-(4-morpholinyl)ethyl]phenyl}amino)-4-pyrimidinyl]-1H-pyrazol-3-yl}phenyl)urea], the melting point fell in the range of 143 to 145 °C.
For `Cn1ncc(-c2ccnc(Nc3cccc(CCN4CCOCC4)c3)n2)c1-c1ccc(NC(=O)N2CCCC2)cc1` [Example 56, N-(4-{1-methyl-4-[2-({3-[2-(4-morpholinyl)ethyl]phenyl}amino)-4-pyrimidinyl]-1H-pyrazol-5-yl}phenyl)-1-pyrrolidinecarboxamide] the value was 228 to 230 °C.
For `CCNC(=O)Nc1ccc(-c2nn(C)cc2-c2ccnc(Nc3cccc(CCN4CCOCC4)c3)n2)cc1` [Example 61, N-ethyl-N′-(4-{1-methyl-4-[2-({3-[2-(4-morpholinyl)ethyl]phenyl}amino)-4-pyrimidinyl]-1H-pyrazol-3-yl}phenyl)urea] the value was 139 to 141 °C; for `CN(C)C(=O)Nc1ccc(-c2nn(C)cc2-c2ccnc(Nc3cccc(CCN4CCOCC4)c3)n2)cc1` [Example 65, N,N-dimethyl-N′-(4-{1-methyl-4-[2-({3-[2-(4-morpholinyl)ethyl]phenyl}amino)-4-pyrimidinyl]-1H-pyrazol-3-yl}phenyl)urea], 132 to 134 °C.
For `O=C(Nc1ccc(-c2nn(CCN3CCOCC3)cc2-c2ccnc(Nc3cccc(F)c3)n2)cc1)N1CCCC1` [Example 84, N-(4-{4-[2-{(3-fluorophenyl)amino]-4-pyrimidinyl}-1-[2-(4-morpholinyl)ethyl]-1H-pyrazol-3-yl}phenyl)-1-pyrrolidinecarboxamide] the value was 167 to 168 °C.
